Experimental data: article PMC7998309, “Structural-Based Optimizations of the Marine-Originated Meridianin C as Glucose Uptake Agents by Inhibiting GSK-3β” (Marine Drugs, 2021)

Legend:
[1] = MTT assay for cell viability (cytotoxicity); assay type: cell-based, human; details: human; HepG2 cells, 48 h incubation, MTT
Protocol: The hepatocyte cell line HepG2 cells obtained from the Type Culture Collection of the Chinese Academy of Sciences (Shanghai, China) were maintained in high-glucose DMEM (Gibco) supplemented with 10% fetal bovine serum (FBS) and 1% penicillin-streptomycin in an atmosphere of 5% CO2 at 37 °C.
Into a 96-well plate, 1 × 10^3 HepG2 cells per well were seeded. After 24 h, stock solutions of test compounds in DMSO were diluted in DMEM to ≤0.1% final DMSO concentration. Cells were treated with various concentrations (2.5–25 µM) of tested compounds for 48 h, and the MTT solution (0.5 mg/mL) was added. After 4 h of incubation at 37 °C for MTT-formazan formation, the supernatant was discarded and 100 µL of DMSO was applied into each well to dissolve formazan crystals. Absorbance at 490 nm was determined spectrophotometrically by using a microplate reader (Epoch, BioTek Instruments, Inc., Winooski, VT, USA).

Row | SMILES | melting point | CC50 at 48 h [1]
1 | CCC(=O)Nc1ccc(-c2cnc(N)nc2-c2c[nH]c3ccc(Br)cc23)cc1 [A1, N-(4-(2-amino-4-(5-bromo-1H-indol-3-yl)pyrimidin-5-yl)phenyl) Propionamide] | 193.6 to 194.2 °C | 16.7 µM
2 | CCCC(=O)Nc1ccc(-c2cnc(N)nc2-c2c[nH]c3ccc(Br)cc23)cc1 [A2, N-(4-(2-amino-4-(5-bromo-1H-indol-3-yl)pyrimidin-5-yl)phenyl) Butyramide] | 187.6 to 188.3 °C | > 25 µM
3 | CC(C)C(=O)Nc1ccc(-c2cnc(N)nc2-c2c[nH]c3ccc(Br)cc23)cc1 [A3, N-(4-(2-amino-4-(5-bromo-1H-indol-3-yl)pyrimidin-5-yl)phenyl) Isobutyramide] | 172.6 to 173.3 °C | 10.8 µM
4 | CC(C)(C)C(=O)Nc1ccc(-c2cnc(N)nc2-c2c[nH]c3ccc(Br)cc23)cc1 [A4, N-(4-(2-amino-4-(5-bromo-1H-indol-3-yl)pyrimidin-5-yl)phenyl) Pivalamide] | 139.6 to 140.3 °C | 11.9 µM
5 | Nc1ncc(-c2ccc(NC(=O)Cc3ccccc3)cc2)c(-c2c[nH]c3ccc(Br)cc23)n1 [A5, N-(4-(2-amino-4-(5-bromo-1H-indol-3-yl)pyrimidin-5-yl)phenyl)-2-phenylacetamide] | 207.6 to 208.4 °C | 20.9 µM
6 | Nc1ncc(-c2ccc(NC(=O)c3ccccc3)cc2)c(-c2c[nH]c3ccc(Br)cc23)n1 [A6, N-(4-(2-amino-4-(5-bromo-1H-indol-3-yl)pyrimidin-5-yl)phenyl) Benzamide] | 187.9 to 188.6 °C | 12.5 µM
7 | Nc1ncc(-c2ccc(NC(=O)c3ccccc3F)cc2)c(-c2c[nH]c3ccc(Br)cc23)n1 [A7, N-(4-(2-amino-4-(5-bromo-1H-indol-3-yl)pyrimidin-5-yl)phenyl)-2-fluorobenzamide] | 159.6 to 160.4 °C | 18.1 µM
8 | Nc1ncc(-c2ccc(NC(=O)c3cccc(F)c3)cc2)c(-c2c[nH]c3ccc(Br)cc23)n1 [A8, N-(4-(2-amino-4-(5-bromo-1H-indol-3-yl)pyrimidiN-5-yl)phenyl)-3-fluorobenzamide] | 183.6 to 184.3 °C | 6.8 µM
9 | Nc1ncc(-c2ccc(NC(=O)c3ccc(F)cc3)cc2)c(-c2c[nH]c3ccc(Br)cc23)n1 [A9, N-(4-(2-amino-4-(5-bromo-1H-indol-3-yl)pyrimidin-5-yl)phenyl)-4-fluorobenzamide] | 178.6 to 179.4 °C | 6 µM
10 | Nc1ncc(-c2ccc(NC(=O)c3ccccc3Cl)cc2)c(-c2c[nH]c3ccc(Br)cc23)n1 [A10, N-(4-(2-amino-4-(5-bromo-1H-indol-3-yl)pyrimidin-5-yl)phenyl)-2-chlorobenzamide] | 211.5 to 212.4 °C | 18.4 µM
11 | Nc1ncc(-c2ccc(NC(=O)c3cccc(Cl)c3)cc2)c(-c2c[nH]c3ccc(Br)cc23)n1 [A11, N-(4-(2-amino-4-(5-bromo-1H-indol-3-yl)pyrimidin-5-yl)phenyl)-3-chlorobenzamide] | 204.8 to 205.2 °C | 18.5 µM
12 | Nc1ncc(-c2ccc(NC(=O)c3ccc(Cl)cc3)cc2)c(-c2c[nH]c3ccc(Br)cc23)n1 [A12, N-(4-(2-amino-4-(5-bromo-1H-indol-3-yl)pyrimidin-5-yl)phenyl)-4-chlorobenzamide] | 261.7 to 262.5 °C | 7.5 µM
13 | Nc1ncc(-c2ccc(NC(=O)c3cccc(Br)c3)cc2)c(-c2c[nH]c3ccc(Br)cc23)n1 [A14, N-(4-(2-amino-4-(5-bromo-1H-indol-3-yl)pyrimidin-5-yl)phenyl)-3-bromobenzamide] | 176.6 to 177.3 °C | > 25 µM
14 | Nc1ncc(-c2ccc(NC(=O)c3ccc(Br)cc3)cc2)c(-c2c[nH]c3ccc(Br)cc23)n1 [A15, N-(4-(2-amino-4-(5-bromo-1H-indol-3-yl)pyrimidin-5-yl)phenyl)-4-bromobenzamide] | 276.4 to 277.3 °C | 7.1 µM
15 | Nc1ncc(-c2ccc(NC(=O)c3ccccc3C(F)(F)F)cc2)c(-c2c[nH]c3ccc(Br)cc23)n1 [A16, N-(4-(2-amino-4-(5-bromo-1H-indol-3-yl)pyrimidin-5-yl)phenyl)-2-(trifluoromethyl) Benzamide] | 163.6 to 164.3 °C | 9.9 µM
16 | Nc1ncc(-c2ccc(NC(=O)c3cccc(C(F)(F)F)c3)cc2)c(-c2c[nH]c3ccc(Br)cc23)n1 [A17, N-(4-(2-amino-4-(5-bromo-1H-indol-3-yl)pyrimidin-5-yl)phenyl)-3-(trifluoromethyl) Benzamide] | 172.6 to 173.3 °C | 14.3 µM
17 | Nc1ncc(-c2ccc(NC(=O)c3ccc(C(F)(F)F)cc3)cc2)c(-c2c[nH]c3ccc(Br)cc23)n1 [A18, N-(4-(2-amino-4-(5-bromo-1H-indol-3-yl)pyrimidin-5-yl)phenyl)-4-(trifluoromethyl) Benzamide] | 312.7 to 313.4 °C | 4.2 µM
18 | Cc1ccccc1C(=O)Nc1ccc(-c2cnc(N)nc2-c2c[nH]c3ccc(Br)cc23)cc1 [A19, N-(4-(2-amino-4-(5-bromo-1H-indol-3-yl)pyrimidin-5-yl)phenyl)-2-methylbenzamide] | 170.7 to 171.6 °C | 10.3 µM
19 | Cc1cccc(C(=O)Nc2ccc(-c3cnc(N)nc3-c3c[nH]c4ccc(Br)cc34)cc2)c1 [A20, N-(4-(2-amino-4-(5-bromo-1H-indol-3-yl)pyrimidin-5-yl)phenyl)-3-methylbenzamide] | 211.8 to 212.9 °C | 13.2 µM
20 | COc1ccccc1C(=O)Nc1ccc(-c2cnc(N)nc2-c2c[nH]c3ccc(Br)cc23)cc1 [A22, N-(4-(2-amino-4-(5-bromo-1H-indol-3-yl)pyrimidin-5-yl)phenyl)-2-methoxybenzamide] | 154.9 to 155.6 °C | > 25 µM
21 | COc1cccc(C(=O)Nc2ccc(-c3cnc(N)nc3-c3c[nH]c4ccc(Br)cc34)cc2)c1 [A23, N-(4-(2-amino-4-(5-bromo-1H-indol-3-yl)pyrimidin-5-yl)phenyl)-3-methoxybenzamide] | 172.6 to 173.3 °C | 14.7 µM
22 | COc1ccc(C(=O)Nc2ccc(-c3cnc(N)nc3-c3c[nH]c4ccc(Br)cc34)cc2)cc1 [A24, N-(4-(2-amino-4-(5-bromo-1H-indol-3-yl)pyrimidin-5-yl)phenyl)-4-methoxybenzamide] | 184.6 to 185.3 °C | 4.3 µM
23 | Nc1ncc(-c2ccc(NC(=O)c3cc(F)ccc3F)cc2)c(-c2c[nH]c3ccc(Br)cc23)n1 [A25, N-(4-(2-amino-4-(5-bromo-1H-indol-3-yl)pyrimidin-5-yl)phenyl)-2,5-difluorobenzamide] | 163.5 to 164.3 °C | 8.9 µM
24 | Nc1ncc(-c2ccc(NC(=O)c3cccs3)cc2)c(-c2c[nH]c3ccc(Br)cc23)n1 [A27, N-(4-(2-amino-4-(5-bromo-1H-indol-3-yl)pyrimidin-5-yl)phenyl) thiophene-2-carboxamide] | 303.8 to 304.4 °C | 10 µM
25 | Nc1ncc(-c2ccc(NC(=O)c3cc4ccccc4cn3)cc2)c(-c2c[nH]c3ccc(Br)cc23)n1 [A28, N-(4-(2-amino-4-(5-bromo-1H-indol-3-yl)pyrimidin-5-yl)phenyl) isoquinoline-3-carboxamide] | 189.3 to 190.2 °C | > 25 µM
